Drawing on PubChem BioAssay AID1963837 (Molecular Pharmacology Branch, DTP, NCI, 2024), this text covers IC50 and viability, T/C for five molecules.

The test system of the assay is 843126-344-R-J1-PDC complex spheroid viability. Description: Anticancer human tumor 843126-344-R-J1-PDC patient-derived melanoma cell line growth inhibition [POLQ]. Particulars: for viability, T/C: stronger effect = lower value. The method, then: Multicellular complex tumor spheroid response to Polymerase (POL) inhibitors (novobiocin, ART-558, RP6685) in combination with a variety of drugs and investigational agents in selected tumor cell lines
The POL inhibitors (novobiocin, ART-558, and RP6685) were evaluated both individually and in combination with standard of care and investigational anticancer small molecules within a complex spheroid model of solid tumors. . Complex spheroids include a stromal component modeled by human endothelial cells (HUVEC) and fibroblasts modeled by human mesenchymal stem cells (MSCs). The concentration ranges selected for each drug and investigational agent were based upon clinically achievable concentrations if the clinical Cmax of the agent was known.
Compounds. The drugs and investigational agents: novobiocin (NSC847541), ART-558 (NSC835418), RP-6685 (NSC848927), peposertib (NSC802822), ceralasertib (NSC780249), elimusertib (NSC800525), camonsertib (NSC841442), AZD-1390 (NSC803789), olaparib (NSC753686), talazoparib (NSC767125), rucaparib (NSC756644), sotorasib (NSC818433), MRTX-1133 (NSC836407), SN-38 (NSC673596), topotecan (NSC609699), epotoside (NSC141540), doxorubicin (NSC123127), gemcitabine (NSC613327), 5-fluorouracil (NSC19893), paclitaxel (NSC125973), vemurafenib (NSC761431), MSA-2 (NSC828583), SN-011 (NSC837082), adavosertib (NSC754352), prexasertib (NSC758257), carboplatin (NSC241240) and oxaliplatin (NSC266046), were obtained from the National Cancer Institute (NCI) Developmental Therapeutics Program Chemical Repository (21). The FDA-approved anticancer drug set is available from the Developmental Therapeutics Program at https://dtp.cancer.gov/organization/dscb/obtaining/. […] The stock solutions were prepared in dimethyl sulfoxide (DMSO, Sigma-Aldrich, St. Louis, MO, cat. D2650), except for the platinum compounds which were prepared in saline (Quality Biological, Gaithersburg, MD, cat. 114-055-101), at 800-fold the tested concentration and stored at -70 degrees C prior to their use. All drugs and investigational agents were tested over a range starting from a high concentration at or near the clinical Cmax and decreasing in half-log increments. If the clinical Cmax for an agent had not been determined, the highest concentration tested was 10 microM, except for SN-38, which was tested at a high concentration of 1 microM.
Cell Culture. All cells were maintained in an incubator at 37 degrees C and 5% CO2 with 95% humidity. The PDC lines were cultured according to standard operating procedures established by the NCI PDMR (https://pdmr.cancer.gov). Table 3 of the manuscript, lists the cell lines along with the number of the three cell types plated to form the mct-spheroids and media for tumor cell growth. After thawing, all PDC lines, except 997537-175-T-J1-PDC and 415267-285-R-J2-PDC, were cultured in Matrigel-coated flasks prepared with a working solution of 1X Ham's F-12 nutrient mix, without supplementation (Thermo Fisher Scientific, cat. 11765054), 100 U/mL penicillin-streptomycin (Thermo Fisher Scientific, cat. 15140122), and 2.5% Matrigel (Corning Inc., Corning, NY, cat. 354248) for the first three passages. The two PDC lines 997537-175-T-J1-PDC and 415267-285-R-J2-PDC were cultured on uncoated flasks. The 857933-349-R-J2-PDC line was cultured in 6C/Colon 1B media containing advanced DMEM/F-12 (Thermo Fisher Scientific, cat. 12634028), 10 mM HEPES (Thermo Fisher Scientific, cat. 15630080), 1X GlutaMAX supplement (Thermo Fisher Scientific, cat. 35050061), 0.1 mg/mL primocin (InvivoGen, San Diego, CA, cat. ant-pm-2), 10% defined fetal bovine serum, heat inactivated (HyClone Laboratories Inc., Logan, UT, cat. SH30070.03HI), 50% L-WRN conditioned media (ATCC, cat. CRL-3276), 1.25 mM N-Acetyl-L-cysteine (Sigma-Aldrich, cat. A9165), 10 mM nicotinamide (Sigma-Aldrich, cat. N0636), 1X B-27 supplement (Thermo Fisher Scientific, cat. 17504044), 1X N-2 supplement (Thermo Fisher Scientific, cat. […]

Setting [1] is: curve of first compound, second compound 0.0316 µM.
[2] abbreviates: curve of first compound, second compound 0.1 µM.
Setting [3] is: curve of first compound, second compound 0.316 µM.
Where [4] appears, read: curve of first compound, second compound 1 µM.
Where [5] appears, read: curve of first compound, second compound 3.16 µM.
[6] abbreviates: curve of first compound, second compound 10 µM.
The mark [7] stands for this setting: second compound 0.0316 µM, first compound 0.0316 µM.
Where [8] appears, read: second compound 0.0316 µM, first compound 0.1 µM.
The mark [9] stands for this setting: second compound 0.0316 µM, first compound 0.316 µM.
Where [10] appears, read: second compound 0.0316 µM, first compound 1 µM.
[11] abbreviates: second compound 0.0316 µM, first compound 3.16 µM.
[12] abbreviates: second compound 0.0316 µM, first compound 10 µM.
[13] abbreviates: second compound 0.1 µM, first compound 0.0316 µM.
The mark [14] stands for this setting: second compound 0.1 µM, first compound 0.1 µM.
Setting [15] is: second compound 0.1 µM, first compound 0.316 µM.
[16] abbreviates: second compound 0.1 µM, first compound 1 µM.
Where [17] appears, read: second compound 0.1 µM, first compound 3.16 µM.
Where [18] appears, read: second compound 0.1 µM, first compound 10 µM.
Setting [19] is: second compound 0.316 µM, first compound 0.0316 µM.
[20] abbreviates: second compound 0.316 µM, first compound 0.1 µM.
The mark [21] stands for this setting: second compound 0.316 µM, first compound 0.316 µM.
Setting [22] is: second compound 0.316 µM, first compound 1 µM.
The mark [23] stands for this setting: second compound 0.316 µM, first compound 3.16 µM.
The mark [24] stands for this setting: second compound 0.316 µM, first compound 10 µM.
The mark [25] stands for this setting: second compound 1 µM, first compound 0.0316 µM.
The mark [26] stands for this setting: second compound 1 µM, first compound 0.1 µM.
[27] abbreviates: second compound 1 µM, first compound 0.316 µM.
The mark [28] stands for this setting: second compound 1 µM, first compound 1 µM.
[29] abbreviates: second compound 1 µM, first compound 3.16 µM.
Where [30] appears, read: second compound 1 µM, first compound 10 µM.
Setting [31] is: second compound 3.16 µM, first compound 0.0316 µM.
Setting [32] is: second compound 3.16 µM, first compound 0.1 µM.
Where [33] appears, read: second compound 3.16 µM, first compound 0.316 µM.
[34] abbreviates: second compound 3.16 µM, first compound 1 µM.
The mark [35] stands for this setting: second compound 3.16 µM, first compound 3.16 µM.
Setting [36] is: second compound 3.16 µM, first compound 10 µM.
[37] abbreviates: second compound 10 µM, first compound 0.0316 µM.
[38] abbreviates: second compound 10 µM, first compound 0.1 µM.
Setting [39] is: second compound 10 µM, first compound 0.316 µM.
[40] abbreviates: second compound 10 µM, first compound 1 µM.
Where [41] appears, read: second compound 10 µM, first compound 3.16 µM.
[42] abbreviates: second compound 10 µM, first compound 10 µM.

SMILES strings stand for the structures. Where “and” joins values, the source holds several entries; their conditions need not be identical. Equal values may be shown once. A value given as a limit tells only on which side of the number the result lay.
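Wherever viability, T/C is given: spheroids exposed to drugs for seven days before readout.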

As for `CC1COCCN1c1cc(C2(S(C)(=N)=O)CC2)nc(-c2ccnc3[nH]ccc23)n1` (stereo not drawn) + Cc1cccc(N(C)C(=O)C2C(O)CCN2c2nc(C)cc(C(F)(F)F)c2C#N)c1, the IC50 is above 10 µM under setting [1]; above 10 µM under setting [2]; above 10 µM under setting [3]; above 10 µM under setting [4]; above 10 µM under setting [5]; above 10 µM under setting [6]. For the same molecule, the viability, T/C is 102% under setting [7]; 80.2% under setting [8]; 74.1% under setting [9]; 84.5% under setting [10]; 76.2% under setting [11]; 51.1% under setting [12]. The viability, T/C is 91.3% under setting [13]; 87.6% under setting [14]; 97.2% under setting [15]; 81.5% under setting [16]; 79.3% under setting [17]; 55.8% under setting [18]. Moreover, the viability, T/C by setting is: under setting [19], 81.6%; under setting [20], 107%; under setting [21], 76.6%; under setting [22], 80.3%; under setting [23], 66.6%; under setting [24], 58.5%. Moreover, the viability, T/C under setting [25] was 94.1%; the viability, T/C under setting [26] is 86.7%; the viability, T/C under setting [27] is 90.6%; the viability, T/C under setting [28] was 82.4%; the viability, T/C under setting [29] was 65.8%; the viability, T/C under setting [30] is 57.6%. Also, the viability, T/C runs as follows: under setting [31], 93.9%; under setting [32], 95.1%; under setting [33], 111%; under setting [34], 83.7%; under setting [35], 78.4%; under setting [36], 54.5%. The viability, T/C was 81.1% under setting [37]; 70% under setting [38]; 91% under setting [39]; 83.3% under setting [40]; 72.2% under setting [41]; 55.3% under setting [42].
`CCc1cc2c(N3CCc4c(cc(Cn5ccnc5)cc4-c4cn(C)nc4C(F)(F)F)C3=O)cc(C)nc2c(OC)n1`: the viability, T/C was 103% and 106% and 77.7% (compound 0.0316 µM); 81.1% and 72.2% and 85.4% (compound 0.1 µM); 76.4% and 87.8% and 98.1% (compound 0.316 µM); 64.2% and 76.7% and 85.2% (compound 1 µM); 71.5% and 72.6% and 64.6% (compound 3.16 µM); 54.2% and 60.3% (compound 10 µM). Besides, for the setting “curve of compound”, the IC50 was above 10 µM.
Turning to `Cc1cccc(N(C)C(=O)C2C(O)CCN2c2nc(C)cc(C(F)(F)F)c2C#N)c1` (stereo not drawn), the viability, T/C by setting is: (compound 0.316 µM) 100% [middle of 12 runs]; (compound 1 µM) 97.7% [middle of 12 runs]; (compound 10 µM) 95.7% [middle of 12 runs]. The IC50 runs as follows: (compound alone, run of 01/08/2024) above 10 µM; (compound alone, run of 01/19/2024) above 10 µM.
Turning to `Cn1ncnc1[C@H]1c2n[nH]c(=O)c3cc(F)cc(c23)N[C@@H]1c1ccc(F)cc1`, the viability, T/C (compound 0.000316 µM) was 85.9% and 104% and 97.7%; the viability, T/C (compound 0.001 µM) is 103% and 90.3% and 99.6%; the viability, T/C (compound 0.00316 µM) is 103% and 95% and 84.3%; the viability, T/C (compound 0.01 µM) was 86.2% and 97.3% and 92.6%; the viability, T/C (compound 0.0316 µM) is 86.9% and 122% and 88.4%; the viability, T/C (compound 0.1 µM) is 84.2% and 90.4% and 88%. The IC50 (curve of compound) was above 0.1 µM.
With `CC(C)n1c(=O)n(C)c2cnc3cc(F)c(-c4ccc(OCCCN5CCCCC5)nc4)cc3c21` + Cc1cccc(N(C)C(=O)C2C(O)CCN2c2nc(C)cc(C(F)(F)F)c2C#N)c1, the concentration for half-maximal inhibition (IC50) reads like this: under setting [1], above 10 µM; under setting [2], above 10 µM; under setting [3], above 10 µM; under setting [4], above 10 µM; under setting [5], above 10 µM; under setting [6], above 10 µM. Besides, the viability, T/C reads like this: under setting [7], 100%; under setting [8], 87.7%; under setting [9], 97.2%; under setting [10], 78.7%; under setting [11], 93%; under setting [12], 60.5%. Further, the viability, T/C was 90.1% under setting [13]; 104% under setting [14]; 72.7% under setting [15]; 83.1% under setting [16]; 78.1% under setting [17]; 67.1% under setting [18]. The viability, T/C under setting [19] is 92%; the viability, T/C under setting [20] was 96.9%; the viability, T/C under setting [21] was 88.7%; the viability, T/C under setting [22] was 89.8%; the viability, T/C under setting [23] is 87.2%; the viability, T/C under setting [24] is 55.1%. In addition, the viability, T/C under setting [25] was 98.3%; the viability, T/C under setting [26] was 78%; the viability, T/C under setting [27] is 86.7%; the viability, T/C under setting [28] was 78.5%; the viability, T/C under setting [29] is 81%; the viability, T/C under setting [30] is 64.3%. For the same molecule, the viability, T/C under setting [31] was 94.8%; the viability, T/C under setting [32] was 84.5%; the viability, T/C under setting [33] is 106%; the viability, T/C under setting [34] is 99.1%; the viability, T/C under setting [35] was 91.9%; the viability, T/C under setting [36] is 73.1%. Moreover, the viability, T/C runs as follows: under setting [37], 93.4%; under setting [38], 90.2%; under setting [39], 89.1%; under setting [40], 77.9%; under setting [41], 81.9%; under setting [42], 61.2%.
